Data on 13 molecules can be found in ChEMBL document CHEMBL1275572, “KPC-2-producing Enterobacter cloacae and pseudomonas putida coinfection in a liver transplant recipient” (2009).

The subject of assay [1] is Enterobacter cloacae. Briefly: Antimicrobial activity against Enterobacter cloacae expressing beta-lactamase KPC-2 and SHV-12 obtained from criticall ill liver transplant recipient by broth microdilution method. The format is functional.
The test system of assay [2] is Pseudomonas putida. Briefly: Antimicrobial activity against Pseudomonas putida expressing beta-lactamase KPC-2 and SHV-12 obtained from criticall ill liver transplant recipient by broth microdilution method. It is filed as functional.
Assay [3] concerns Enterobacter cloacae. Briefly: Antimicrobial activity against Enterobacter cloacae expressing beta-lactamase KPC-2 and SHV-12 obtained from criticall ill liver transplant recipient by broth microdilution method in presence of beta-lactamase inhibitor Tazobactam. It is filed as functional.
Assay [4] has as its system Pseudomonas putida. Briefly: Antimicrobial activity against Pseudomonas putida expressing beta-lactamase KPC-2 and SHV-12 obtained from criticall ill liver transplant recipient by broth microdilution method in presence of beta-lactamase inhibitor Tazobactam. The format is functional.
A further assay has as its system Acinetobacter sp. The assay can be described thus: Antimicrobial activity against Acinetobacter spp. The format is functional, organism-based.

Values after ≈ are worked out from the molar mass of the structure shown.

Description for Pseudomonas aeruginosa: Antimicrobial activity against Pseudomonas aeruginosa

Turning to `CC(C)(O/N=C(\C(=O)N[C@@H]1C(=O)N2C(C(=O)[O-])=C(C[n+]3ccccc3)CS[C@H]12)c1csc(N)n1)C(=O)O` [CEFTAZIDIME], the MIC in the assay on Enterobacter cloacae [1] and with Pseudomonas putida [2] was > 32 µg/mL throughout.

As for `CCN1CCN(C(=O)N[C@@H](C(=O)N[C@@H]2C(=O)N3[C@@H]2SC(C)(C)[C@@H]3C(=O)O)c2ccccc2)C(=O)C1=O` [PIPERACILLIN], the MIC in the assay on Enterobacter cloacae [3] and in the assay on Pseudomonas putida [4] was > 128 µg/mL each time.

As to `C[C@@H](O)[C@H]1C(=O)N2C(C(=O)O)=C(S[C@@H]3CN[C@H](C(=O)Nc4cccc(C(=O)O)c4)C3)[C@H](C)[C@H]12`, the MIC against Enterobacter cloacae [1] and in the assay with Pseudomonas putida [2] was > 8 µg/mL in each case.

In the case of GENTAMICIN, the minimal inhibitory concentration (MIC) with Enterobacter cloacae [1] and against Pseudomonas putida [2] was > 8 µg/mL in each case.

As for `C[C@@H](O)[C@H]1C(=O)N2C(C(=O)O)=C(SCCNC=N)C[C@H]12` [IMIPENEM ANHYDROUS], the MIC with Enterobacter cloacae [1] and in the assay with Pseudomonas putida [2] was > 4 µg/mL in each case.

For the molecule `CO/N=C(\C(=O)N[C@@H]1C(=O)N2C(C(=O)[O-])=C(C[N+]3(C)CCCC3)CS[C@H]12)c1csc(N)n1`, the MIC in the assay with Pseudomonas putida [2] was > 32 µg/mL.

On to `NCC[C@H](O)C(=O)N[C@@H]1C[C@H](N)[C@@H](O[C@H]2O[C@H](CN)[C@@H](O)[C@H](O)[C@H]2O)[C@H](O)[C@H]1O[C@H]1O[C@H](CO)[C@@H](O)[C@H](N)[C@H]1O` [AMIKACIN], for which the MIC turned out to be 16 µg/mL (≈ 27.3 µM) in the assay with Enterobacter cloacae [1] and 1 µg/mL (≈ 1.71 µM) against Pseudomonas putida [2].

For `CO[C@@]1(NC(=O)Cc2cccs2)C(=O)N2C(C(=O)O)=C(COC(N)=O)CS[C@@H]21` [CEFOXITIN], the minimal inhibitory concentration (MIC) with Enterobacter cloacae [1] and with Pseudomonas putida [2] was > 32 µg/mL each time.

As for `C[C@@H](O)[C@H]1C(=O)N2C(C(=O)O)=C(S[C@@H]3CN[C@H](C(=O)N(C)C)C3)[C@H](C)[C@H]12` [MEROPENEM], the minimum inhibitory concentration (MIC) against Enterobacter cloacae [1] and with Pseudomonas putida [2] was > 4 µg/mL in each case.

`C[C@H]1COc2c(N3CCN(C)CC3)c(F)cc3c(=O)c(C(=O)O)cn1c23.C[C@H]1COc2c(N3CCN(C)CC3)c(F)cc3c(=O)c(C(=O)O)cn1c23.O` [LEVOFLOXACIN]: the figures for the MIC against Enterobacter cloacae [1] and with Pseudomonas putida [2] were 2 µg/mL and > 16 µg/mL, respectively.

For the molecule `CO/N=C(\C(=O)N[C@@H]1C(=O)N2C(C(=O)O)=C(CSc3nc(=O)c(O)nn3C)CS[C@H]12)c1csc(N)n1` [CEFTRIAXONE], the MIC in the assay on Enterobacter cloacae [1] and with Pseudomonas putida [2] was > 32 µg/mL throughout.

With COLISTIN, the minimum inhibitory concentration (MIC) was > 16 µg/mL in the assay with Enterobacter cloacae [1], 2 µg/mL against Pseudomonas putida [2], > 16 µg/mL in the assay with Acinetobacter sp. and > 16 µg/mL with Pseudomonas aeruginosa.

Consider `NC[C@H]1O[C@H](O[C@H]2[C@H](O)[C@@H](O[C@H]3O[C@H](CO)[C@@H](O)[C@H](N)[C@H]3O)[C@H](N)C[C@@H]2N)[C@H](N)C[C@@H]1O` [TOBRAMYCIN], for which the MIC against Enterobacter cloacae [1] and with Pseudomonas putida [2] was > 8 µg/mL each time.
